Reference: patent US9932331B2, “Phenyl tetrahydroisoquinoline compound substituted with heteroaryl” (TAISHO PHARMACEUTICAL CO., LTD, priority 2014, dated 2018)
Counter-ions that a name gives are not always drawn.

Biological target: T1, human NHE3 (Homo sapiens, UniProt P48764)
T1 sequence (P48764 26-834): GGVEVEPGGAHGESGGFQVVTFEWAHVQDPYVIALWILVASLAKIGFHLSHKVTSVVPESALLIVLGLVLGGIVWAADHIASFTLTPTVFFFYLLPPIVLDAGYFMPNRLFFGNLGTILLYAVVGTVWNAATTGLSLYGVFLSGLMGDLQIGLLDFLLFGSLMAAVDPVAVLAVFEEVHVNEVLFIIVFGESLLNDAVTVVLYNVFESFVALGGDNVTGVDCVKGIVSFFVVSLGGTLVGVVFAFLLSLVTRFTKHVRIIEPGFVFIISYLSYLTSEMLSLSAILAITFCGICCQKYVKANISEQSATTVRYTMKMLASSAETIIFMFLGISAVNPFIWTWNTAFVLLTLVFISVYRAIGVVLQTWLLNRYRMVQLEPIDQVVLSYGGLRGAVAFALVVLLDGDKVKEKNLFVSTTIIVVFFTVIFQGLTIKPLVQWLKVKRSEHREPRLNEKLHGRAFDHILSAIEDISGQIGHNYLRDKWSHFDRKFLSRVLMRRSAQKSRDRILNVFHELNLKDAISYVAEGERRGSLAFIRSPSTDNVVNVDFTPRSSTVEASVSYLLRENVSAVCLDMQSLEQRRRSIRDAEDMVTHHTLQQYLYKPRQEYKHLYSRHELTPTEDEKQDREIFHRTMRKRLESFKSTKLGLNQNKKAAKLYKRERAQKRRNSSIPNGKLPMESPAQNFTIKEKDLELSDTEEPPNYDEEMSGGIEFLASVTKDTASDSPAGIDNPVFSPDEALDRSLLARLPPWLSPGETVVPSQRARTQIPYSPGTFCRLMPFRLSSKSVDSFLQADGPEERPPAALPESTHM
Test: NHE3 inhibition test (recovery of intracellular pH in cell line stably expressing human NHE3)
Type: cell-based
Settings: OK cells deficient in endogenous NHE stably expressing human NHE3; BCECF fluorescence, initial rate of pH recovery; read-out: human NHE3 inhibitory activity IC50
Procedure, shortened: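 IC50 is the concentration halving the initial rate of Na-triggered intracellular pH recovery, tracked by BCECF fluorescence, in NH4Cl-acidified cells. Cells: NHE-deficient OK line stably transfected with human NHE3; compound added in Na-free pH 7.4 buffer.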

| Structure (SMILES) | IC50 [nM] |
| --- | --- |
| CN1Cc2c(Cl)cc(Cl)cc2[C@H](c2cccc(-c3cn(CCOCCOCCOCCNC(=O)NCCNC(=O)NCCOCCOCCOCCn4cc(-c5cccc([C@@H]6CN(C)Cc7c(Cl)cc(Cl)cc76)c5)nn4)nn3)c2)C1 [Example 7-34, 1,1′-Ethane-1,2-diylbis {3-[2-(2-{2-[2-(4-{3-[(4S)-6,8-dichloro-2-methyl-1,2,3,4-tetrahydroisoquinolin-4-yl]phenyl}-1H-1,2,3-triazol-1-yl)ethoxy]ethoxy}ethoxy)ethyl]urea}hydrochloride] | 3.3 |
| CN1Cc2c(Cl)cc(Cl)cc2[C@H](c2cccc(-c3cn(CCOCCOCCOCCNC(=O)NCCCNC(=O)NCCOCCOCCOCCn4cc(-c5cccc([C@@H]6CN(C)Cc7c(Cl)cc(Cl)cc76)c5)nn4)nn3)c2)C1 [Example 7-35, 1,1′-Propane-1,3-diylbis {3-[2-(2-{2-[2-(4-{3-[(4S)-6,8-dichloro-2-methyl-1,2,3,4-tetrahydroisoquinolin-4-yl]phenyl}-1H-1,2,3-triazol-1-yl)ethoxy]ethoxy}ethoxy)ethyl]urea}hydrochloride] | 4.4 |
| CN1Cc2c(Cl)cc(Cl)cc2[C@H](c2cccc(-c3cn(CCOCCOCCOCCNC(=O)NCCOCCOCCOCCn4cc(-c5cccc([C@@H]6CN(C)Cc7c(Cl)cc(Cl)cc76)c5)nn4)nn3)c2)C1 [Example 7-36, 1,3-Bis[2-(2-{2-[2-(4-{3-[(4S)-6,8-dichloro-2-methyl-1,2,3,4-tetrahydroisoquinolin-4-yl]phenyl}-1H-1,2,3-triazol-1-yl)ethoxy]ethoxy}ethoxy)ethyl]urea hydrochloride] | 21.4 |
| CN1Cc2c(Cl)cc(Cl)cc2[C@H](c2cccc(-c3cn(CCOCCOCCOCCNC(=O)NCCOCCNC(=O)NCCOCCOCCOCCn4cc(-c5cccc([C@@H]6CN(C)Cc7c(Cl)cc(Cl)cc76)c5)nn4)nn3)c2)C1 [Example 7-37, 1,1′-(Oxydiethane-2,1-diyl)bis{3-[2-(2-{2-[2-(4-{3-[(4S)-6,8-dichloro-2-methyl-1,2,3,4-tetrahydroisoquinolin-4-yl]phenyl}-1H-1,2,3-triazol-1-yl)ethoxy]ethoxy}ethoxy)ethyl]urea}hydrochloride] | 6.6 |
| CN1Cc2c(Cl)cc(Cl)cc2[C@H](c2cccc(-c3cnc(NCCOCCOCCOCCNC(=O)NCCCCNC(=O)NCCOCCOCCOCCNc4ncc(-c5cccc([C@@H]6CN(C)Cc7c(Cl)cc(Cl)cc76)c5)cn4)nc3)c2)C1 [Example 7-38, 1,1′-Butane-1,4-diylbis(3-{2-[2-(2-{2-[(5-{3-[(4S)-6,8-dichloro-2-methyl-1,2,3,4-tetrahydroisoquinolin-4-yl]phenyl}pyrimidin-2-yl)amino]ethoxy}ethoxy)ethoxy]ethyl}urea) hydrochloride] | 3.8 |
| CN1Cc2c(Cl)cc(Cl)cc2C(c2cccc(-c3ccnc(NCCOCCOCCNC(=O)Nc4ccc(NC(=O)NCCOCCOCCNc5cc(-c6cccc(C7CN(C)Cc8c(Cl)cc(Cl)cc87)c6)ccn5)cc4)c3)c2)C1 (stereo not drawn) [Example 7-41, 1,1′-Benzene-1,4-diylbis[3-(2-{2-[2-({4-[3-(6,8-dichloro-2-methyl-1,2,3,4-tetrahydroisoquinolin-4-yl)phenyl]pyridin-2-yl}amino)ethoxy]ethoxy}ethyl)urea]trifluoroacetate] | 5520 |
| CN1Cc2c(Cl)cc(Cl)cc2[C@H](c2cccc(-c3ccc(NCCOCCOCCNC(=O)CCC(=O)NCCOCCOCCNc4ccc(-c5cccc([C@@H]6CN(C)Cc7c(Cl)cc(Cl)cc76)c5)cn4)nc3)c2)C1 [Example 8-1, N,N′-Bis[2-(2-{2-[(5-{3-[(4S)-6,8-dichloro-2-methyl-1,2,3,4-tetrahydroisoquinolin-4-yl]phenyl}pyridin-2-yl)amino]ethoxy}ethoxy)ethyl]butanediamide hydrochloride] | 14.9 |
| CN1Cc2c(Cl)cc(Cl)cc2[C@H](c2cccc(-c3ccc(NCCOCCOCCNC(=O)[C@H](O)[C@@H](O)C(=O)NCCOCCOCCNc4ccc(-c5cccc([C@@H]6CN(C)Cc7c(Cl)cc(Cl)cc76)c5)cn4)nc3)c2)C1 [Example 8-2, (2R,3R)-N,N′-Bis[2-(2-{2-[(5-{3-[(4S)-6,8-dichloro-2-methyl-1,2,3,4-tetrahydroisoquinolin-4-yl]phenyl}pyridin-2-yl)amino]ethoxy}ethoxy)ethyl]-2,3-dihydroxybutanediamide hydrochloride] | 10.7 |
| CN1Cc2c(Cl)cc(Cl)cc2[C@H](c2cccc(-c3ccc(NCCOCCOCCNC(=O)CCCCC(=O)NCCOCCOCCNc4ccc(-c5cccc([C@@H]6CN(C)Cc7c(Cl)cc(Cl)cc76)c5)cn4)nc3)c2)C1 [Example 8-3, N,N′-Bis[2-(2-{2-[(5-{3-[(4S)-6,8-dichloro-2-methyl-1,2,3,4-tetrahydroisoquinolin-4-yl]phenyl}pyridin-2-yl)amino]ethoxy}ethoxy)ethyl]hexanediamide hydrochloride] | 13.2 |
| CN1Cc2c(Cl)cc(Cl)cc2[C@H](c2cccc(-c3ccc(NCCOCCOCCNC(=O)c4ccccc4C(=O)NCCOCCOCCNc4ccc(-c5cccc([C@@H]6CN(C)Cc7c(Cl)cc(Cl)cc76)c5)cn4)nc3)c2)C1 [Example 8-4, N,N′-Bis[2-(2-{2-[(5-{3-[(4S)-6,8-dichloro-2-methyl-1,2,3,4-tetrahydroisoquinolin-4-yl]phenyl}pyridin-2-yl)amino]ethoxy}ethoxy)ethyl]benzene-1,2-dicarboxamide hydrochloride] | 115 |
| CN1Cc2c(Cl)cc(Cl)cc2[C@H](c2cccc(-c3cn(CCOCCOCCOCCNC(=O)[C@H](O)[C@@H](O)C(=O)NCCOCCOCCOCCn4cc(-c5cccc([C@@H]6CN(C)Cc7c(Cl)cc(Cl)cc76)c5)nn4)nn3)c2)C1 [Example 8-5, (2R,3R)-N,N′-Bis[2-(2-{2-[2-(4-{3-[(4S)-6,8-dichloro-2-methyl-1,2,3,4-tetrahydroisoquinolin-4-yl]phenyl}-1H-1,2,3-triazol-1-yl)ethoxy]ethoxy}ethoxy)ethyl]-2,3-dihydroxybutanediamide hydrochloride] | 2.8 |
| CN1Cc2c(Cl)cc(Cl)cc2[C@H](c2cccc(-c3ccc(NCCOCCOCCNC(=O)COCC(=O)NCCOCCOCCNc4ccc(-c5cccc([C@@H]6CN(C)Cc7c(Cl)cc(Cl)cc76)c5)cn4)nc3)c2)C1 [Example 8-7, 1-[(5-{3-[(4S)-6,8-Dichloro-2-methyl-1,2,3,4-tetrahydroisoquinolin-4-yl]phenyl}pyridin-2-yl)amino]-N-[2-(2-{2-[(5-{3-[(4S)-6,8-dichloro-2-methyl-1,2,3,4-tetrahydroisoquinolin-4-yl]phenyl}pyridin-2-yl)amino]ethoxy}ethoxy)ethyl]-10-oxo-3,6,12-trioxa-9-azatetradecan-14-amide hydrochloride] | 41.7 |
| CN1Cc2c(Cl)cc(Cl)cc2[C@H](c2cccc(-c3cn(CCOCCOCCOCCNC(=O)[C@@H](O)[C@H](O)C(=O)NCCOCCOCCOCCn4cc(-c5cccc([C@@H]6CN(C)Cc7c(Cl)cc(Cl)cc76)c5)nn4)nn3)c2)C1 [Example 8-9, (2S,3S)-N,N′-Bis[2-(2-{2-[2-(4-{3-[(4S)-6,8-dichloro-2-methyl-1,2,3,4-tetrahydroisoquinolin-4-yl]phenyl}-1H-1,2,3-triazol-1-yl)ethoxy]ethoxy}ethoxy)ethyl]-2,3-dihydroxybutanediamide hydrochloride] | 3.6 |
| CN1Cc2c(Cl)cc(Cl)cc2[C@H](c2cccc(-c3cc(NCCOCCOCCOCCNC(=O)[C@H](O)[C@@H](O)C(=O)NCCOCCOCCOCCNc4cc(-c5cccc([C@@H]6CN(C)Cc7c(Cl)cc(Cl)cc76)c5)ncn4)ncn3)c2)C1 [Example 8-10, (2R,3R)-N,N′-Bis{2-[2-(2-{2-[(6-{3-[(4S)-6,8-dichloro-2-methyl-1,2,3,4-tetrahydroisoquinolin-4-yl]phenyl}pyrimidin-4-yl)amino]ethoxy}ethoxy)ethoxy]ethyl}-2,3-dihydroxybutanediamide hydrochloride] | 3.2 |
| CN1Cc2c(Cl)cc(Cl)cc2[C@@H](c2cccc(-c3cc(NCCOCCOCCOCCNC(=O)COCC(=O)NCCOCCOCCOCCNc4cc(-c5cccc([C@@H]6CN(C)Cc7c(Cl)cc(Cl)cc76)c5)ncn4)ncn3)c2)C1 [Example 8-11, 1-[(6-{3-[(4R)-6,8-Dichloro-2-methyl-1,2,3,4-tetrahydroisoquinolin-4-yl]phenyl}pyrimidin-4-yl)amino]-N-{2-[2-(2-{2-[(6-{3-[(4S)-6,8-dichloro-2-methyl-1,2,3,4-tetrahydroisoquinolin-4-yl]phenyl}pyrimidin-4-yl)amino]ethoxy}ethoxy)ethoxy]ethyl}-13-oxo-3,6,9,15-tetraoxa-12-azaheptadecan-17-amide hydrochloride] | 7.5 |
